This note sets out measurements from patent US6673839B1, “Pharmaceutical compositions with antitumour activity” (Universita' Degli Studi di Catania, priority 1998, dated 2004).

Structures can show the parent of a compound that is named as a salt.

The test system of data set [1] is cells from 4 primitive epidermoid carcinomas of the larynx and 1 primitive undifferentiated carcinoma of the nasopharynx. Put plainly: Effects of L-aC on cell cycle of cultured primitive human tumour cells (cytofluorimetric analysis). Format: cell-based. On the procedure: (§1) The effects of L-aC on cells from 4 primitive epidermoid carcinomas of the larynx and 1 primitive undifferentiated carcinoma of the nasopharynx were tested.
Tissue fragments from the tumour mass were mechanically dissociated in Hank's solutions adding an antibiotic and an antifungal to obtain a cell monosuspension free of agglomerates. The resulting suspension was centrifuged at 1200 rpm for 5 m′ and the pellet was resuspended in MEM culture medium supplemented with 10% of patient serum, to obtain a concentration of 2−3×10^4 cells/ml of medium. 1 ml Samples were prepared from the suspension, in amounts equivalent to the number of the concentrations to be assayed (0.2-20 mg/ml) as well as a control sample.
The suspensions were exposed to the medicament in Dubnoff bath at 37° C. for 24 h, then centrifuged and resuspended in 1 ml of fixing solution (tris buffer+methanol (1:3)) for 30 minutes and finally stained with 0.5% propyl iodide with simultaneous treatment with RNase.
Cytofluorimetric analysis in order to evaluate the percentage distribution of the cell cycle phases, was performed by an Ortho Diagnostic Spectrum III cytofluorigraph, equipped with Graphic Method computerized program.
The evaluation of the cell sensitivity to the medicament was based on the extent of the perturbations induced by L-aC on the cell cycle.

The subject of data set [2] is Acute promyelocytic leukemia cell line (HL60). Put plainly: Methylene blue assay on stabilized human neoplastic cell lines. It counts as cell-based. The protocol: (§2) The effects of L-aC on stabilized human neoplastic cell lines were tested using the methylene blue assay.
(§3) Acute promyelocytic leukemia cell line (HL60) and prostate (Du 145), colon (HT 29) and breast (MCF 7) adenocarcinoma cell lines have been used.
(§4) Cell suspensions at concentrations of 10^5 cells/ml were prepared.
(§5) 100 μl of the obtained cell suspension were inoculated on 96 well plates and incubated at 37° for 12 hours, to obtain cell adhesion to the plates. After 12 hours, L-aC was added at the concentrations of 0.2 mg/ml, 2 mg/ml, 20 mg/ml. After 72 hours, the culture medium was removed and 100 μl of 100% ethanol were added for 30 min. Subsequently ethanol was removed and 1% methylene-blue was added for 2 hours. The dye was then removed and the plates were dried before adding 1M HCl.
(§6) The cytotoxicity percentage was calculated using the following formula:
(§7) (1−[O^D treated cells/O^D control cells)×100.
(§8) The optical density was evaluated by Uniskan micro-spectrophotometer with 630 nmwavelength filter.

Data set [3] deals with prostate (Du 145) adenocarcinoma cell line. Described as above. It counts as cell-based. Particulars: prostate carcinoma line. On the procedure:
as §2, §3, §4, §5, §6, §7, §8

In data set [4] the test system is Cells from Larynx Carcinoma Explant. Put plainly: In vitro short-term chemosensitivity assay (MTT). Format: cell-based, human. The protocol:
as §1
(§9) Tissue fragments from the tumour mass were mechanically dissociated in Hank's solutions adding an antibiotic and an antifungal to obtain a cell monosuspension free of agglomerates. The resulting suspension was centrifuged at 1200 rpm for 5 minutes and the pellet was resuspended in MEM culture medium supplemented with 10% of patient serum, to obtain a concentration of 10^5 cells/ml. Subsequently, 180 μl of the resulting suspension were dispensed in microplate wells and incubated under 5% CO2 atmosphere at 37° C. for 3 days. After that, the antitumor medicaments were added in the amount of 20 μl for each well, at a concentration of 0.1×, 1× and 10× the maximum serum concentrations that can usually be reached in clinical practice. 24 h after the beginning of the exposure to the antitumour medicament, 100 μl of MTT were added, and after 4 h, a further 150 μl of dimethylsulfoxide were added.
(§10) The optical density was evaluated by a Uniscan microspectrophotometer with a […] wavelength filter. Cytotoxicity was evaluated as percentage of the optical density of the treated sample compared with the optical density of the control.
(§11) Bleomycin (BLEC), […] (CDDP), 5-fluoruracil (5-FU), vincristine (VCR), epidoxorubicin (Epi-Dx) and methotrexate (MTX) were tested for comparison purposes.
(§12) L-aC was tested at the following concentrations: 0.2-2-20 mg/ml.
In vitro short-term chemosensitivity assay (according to Hill and coll.)
(Cell Vitality Percentage After Exposure to the Antitumoral)—Raw Data
(Cells from Larynx Carcinoma Explant)

Data set [5] deals with cells from 4 primitive epidermoid carcinomas of the larynx and 1 primitive undifferentiated carcinoma of the nasopharynx. As to the kind of experiment: In vitro short-term chemosensitivity assay (MTT), all five explants. Format: cell-based, human. On the procedure: as §1, §9, §10, §11, §12
Data set [6] deals with Yoshida tumour. Put plainly: Survived rats reinoculated with Yoshida tumour. Format: in vivo, Sprague-Dowley rats. On the procedure: 20 survivors rats previously transplanted with Yoshida tumour and subjected to the treatment on alternate days with 25 mg of L-aC diluted in 5 ml of saline solution […], were reinoculated with the tumour, at the end of the 6 week observation period.

On to `CC(=O)OC(CC(=O)[O-])C[N+](C)(C)C` [L-aC, L-acetylcarnitine hydrochloride], for which, in data set [1] (0.2 mg/ml, 24 h, all samples), the “increase in the percentage of S phase cells compared with the control” value is given as “about 10%”. The “effect on cell cycle” value in data set [1] (20 mg/ml, 24 h) is recorded as “block in the percentage of the cells in G1 phase”. The “G1/S+G2M ratio after the treatment” value in data set [1] (20 mg/ml, tumour with pre-treatment ratio 31/69) was 70/30. Further, the cytotoxicity in data set [2] is recorded as 52%; in data set [3], 58%. For the same compound, the “Cell Vitality Percentage After Exposure” value in data set [4] (Table 2 explant, 0.1x) is 62%; in data set [4] (Table 2 explant, 1x) it was 32%; in data set [4] (Table 2 explant, 10x), 15%; in data set [4] (Table 3 explant, 0.1x) it was 42%; in data set [4] (Table 3 explant, 1x), 24%; in data set [4] (Table 3 explant, 10x), 7.2%. Moreover, the “Cell Vitality Percentage After Exposure” value is 3.8% in data set [4] (Table 4 explant, 0.1x); 1.5% in data set [4] (Table 4 explant, 1x); 1.4% in data set [4] (Table 4 explant, 10x); 63% in data set [4] (Table 5 explant, 0.1x); 37% in data set [4] (Table 5 explant, 1x); 32% in data set [4] (Table 5 explant, 10x). Also, the IC50 in data set [5] (Homo sapiens, read-out: IC 50 concentrations) was in the range of 20 to 700 µg/mL. Also, the IC90 in data set [5] (Homo sapiens, read-out: IC 90 concentrations) lay in the range of 700 to 20000 µg/mL. The “most active medicaments (cases out of 5)” value in data set [5] (five explants) is given as 4/5. Besides, in data set [6] (20 survivors (25 mg L-aC alternate days, 4 weeks), until day 14 after reinoculation), the ascites after reinoculation entry was “no animals showed ascites”. Besides, the “outcome of repeated reinoculation” value in data set [6] (second reinoculation) is reported as “unsuccessfully”.
